“Also recorded” adds a separate entry of the source.
How the values were obtained:
[1] = test system: HepG2 human hepatocarcinoma cells; assay: Rotenone ATP Assay (Complex I by-pass assay); type: cell-based
Experimental: Example 13: Rotenone ATP Assay (a Complex I by-Pass Assay)
This assay has been adapted from Haefeli R H, Erb M, Gemperli A C, Robay D, Courdier Fruh I, et al. (2011) NQO1-Dependent Redox Cycling of Idebenone: Effects on Cellular Redox Potential and Energy Levels. PLoS ONE 6(3): e17963. HepG2 human hepatocarcinoma cells are co-incubated with the electron transport chain complex I toxin rotenone +/− compounds of interest and the corresponding effect on ATP synthesis is measured with a bioluminescent substrate.
The stock solutions of the test articles (See Table 1, below for a list of the test articles examined using this assay) were prepared in dimethyl sulfoxide (DMSO at 10 mM). Working stock solutions were prepared on the day of the experiment in glucose free, serum free Dulbecco's modified Eagles medium (DMEM) supplemented with 50 micromolar rotenone.
In brief, HepG2 cells were plated at 25,000 cells per well in low glucose (1 gram/Liter) DMEM medium+10% fetal calf serum and incubated for 24 hours. The following day, the media was decanted and subsequently replaced with glucose free/serum free DMEM which has been supplemented with 50 micromolar rotenone and compound of interest. Serial dilutions of compound were prepared in 3× dilutions beginning at 25 micromolar. The cells were incubated for 60 minutes in a humidified tissue culture incubator. Following incubation, ATP levels were quantified via bioluminescent assay (Promega […] Glo Assay kit) and readings were captured on a standard microplate reader.
ATP bioluminescence is plotted versus the log of compound of interest and data are used to generate EC50 values. Curve fitting is performed using a sigmoidal dose response curve fit function (GraphPad Prism software).
EC50 values were derived from seven-point dose response curves performed on n=3 technical replicates per dose. Robustness of curve fit was assessed as a quality control measure, with an R squared value of at least 0.80 being required for a successful curve fit. Compounds of interest showing an increase in ATP bioluminescence relative to vehicle control were verified in an independent biological replicate of n=3 technical replicates per dose.
This assay is a direct measure of the ability of compounds of interest to restore ATP production under conditions of inhibition of Complex I of the mitochondrial electron transport chain. As the majority of ATP produced via the electron transport chain is thought to derive from Complex I activity, significant impairment in Complex I function has dire biological consequences. Of note, Complex I mutations are thought to drive pathophysiology in multiple mitochondrial diseases, including Leigh syndrome and Leber's Hereditary Optic Neuropathy (LHON), while diminished Complex I activity and the resultant attenuation of ATP production has been shown in neurodegenerative diseases, including Friedreich's Ataxia, Parkinson's Disease and Huntington's Disease. In brief, most compounds were tested in the Rotenone Oxygraph Assay instead of this assay but only Idebenone was active amongst Omaveloxolone, Idebenone and Vatiquinone.

[2] = test system: GM03665 cells (fibroblasts from a subject with Friedreich's ataxia); assay: RSL-3 Toxicity Assay (RSL-3 Assay); type: cell-based, human; details: for EC50: Homo sapiens, Fibroblast
Source text: Example 14: RSL-3 Toxicity Assay (RSL-3 Assay)
This assay has been adapted from: Hinman, A., Holst, C. R., Latham, J. C., Bruegger, J. J., Ulas, G., McCusker, K. P., Amagata, A., Davis, D., Hoff, K. G., Kahn-Kirby, A. H., Kim, V., Kosaka, Y., Lee, E., Malone, S. A., Mei, J. J., Richards, S. J., Rivera, V., Miller, G., Trimmer, J. K., Shrader, W. D., “Vitamin E hydroquinone is an endogenous regulator of ferroptosis via redox control of 15-lipoxygenase”, (2018) PLoS ONE 13(8): e0201369.
In brief, GM03665 cells (Coriell Institute) were seeded in 96-well plates (Sarstedt) in DMEM cell culture media containing 10% Fetal Bovine serum and 1% Penicillin-Streptomycin (Pen-Strep) antibiotic mix at the amount of 2×10^4/mL (100 μL or 2×10^3 cells per well). Cells were left to rest overnight at 37° C. in a humidified atmosphere with 5% CO2 to allow attachment of the cells to the culture plate. Test compounds were prepared as DMSO stocks (10 mM) and were serially diluted in cell culture media to obtain 2× working solutions. Cell media was discarded and replaced by 50 μL of test compound solutions or cell media with vehicle for control wells. Within 15 minutes, 2× working solution (4 μM) of 1S,3R-RSL-3 (CAS #1219810-16-8, Sigma-Aldrich) (diluted from 5 mM DMSO stock in cell culture media) was added. Final reaction volume was 100 μL and final DMSO concentration in reaction was kept below 0.2% (v/v) and equal in all wells. Final RSL-3 concentration was 2 μM and test compound final concentrations in reaction were up to 1000 nM. After 24 hours of incubation cell viability was assessed by MTT test. MTT (Sigma-Aldrich) solution 1 mg/mL in IX PBS (pH=7.4) was prepared 1 hour before the assay and filtered through Filtropur S 0.2 filters (Sarstedt). Cell media with test compounds was discarded and 100 μL of MTT solution was added to cells. The plates were incubated for 2 hours at +37° C. Thereafter, the MTT solution was removed and 100 μL of isopropanol was added to dissolve sediment. Absorption at 570 and 650 nm was measured using Hidex Sense microplate reader.
Compounds A and B and idebenone were not examined in this assay. The data presented in Table 1 indicates omaveloxolone was not active in this assay but that vatiquinone was active.
Discussion—Both BSO and RSL-3 are frequently utilized to induce the regulated cell death pathway known as ferroptosis. Ferroptosis is thought to require the joint activity of iron catalyzed oxidative stress and lipid peroxidation and has been described in cell and animal models of multiple neurodegenerative diseases, including Friedreich's Ataxia, Huntington Disease, Parkinson Disease and Alzheimer's Disease. […] Of note, the results for Compounds C-I and K were favorable with respect to inhibition of ferroptotic cell death when either BSO or RSL3 were used as initiating stimulus, differentiating these compounds from omaveloxolone and idebenone.

[3] = GM03665 cells, RSL-3 2 μM, 24 hours, MTT

SMILES | Complex I by-pass activity in Rotenone ATP Assay (in words) [1] | EC50 ([1]; Homo sapiens, 1 h, HepG2, 50 micromolar rotenone, 60 minutes, ATP bioluminescence) | EC50 [2, 3] | protection against RSL-3 toxicity (in words) [2] | ATP Rotenone Assay EC50 ([1]; HepG2, 50 micromolar rotenone, 60 minutes, ATP bioluminescence) | RSL-3 Assay EC50 [2, 3]
COC1=C(OC)C(=O)C(CCCCCCCCCC(F)(F)F)=C(C)C1=O [Compound C, 2,3-dimethoxy-5-methyl-6-(10,10,10-trifluorodecyl)cyclohexa-2,5-diene-1,4-dione] | effective in rescuing cells; also recorded: comparable to that of Idebenone | 1440 nM | 110 nM | – | – | –
COC1=C(OC)C(=O)C(CCCCF)=C(C)C1=O [Compound J, 2-(4-fluorobutyl)-5,6-dimethoxy-3-methylcyclohexa-2,5-diene-1,4-dione] | not that effective | – | > 1000 nM | essentially inactive | – | –
CC1(C)CC[C@]2(NC(=O)C(C)(F)F)CC[C@]3(C)[C@H](C(=O)C=C4[C@@]5(C)C=C(C#N)C(=O)C(C)(C)[C@@H]5CC[C@]43C)[C@@H]2C1 [Omaveloxolone, reference compound] | inactive | – | – | not active | Inactive | Inactive
